Activity calls are given as the source filed them. The rule behind the calls is not given here.

This is an account of results in ChEMBL document CHEMBL3407368, “Further studies on anti-invasive chemotypes: An excursion from chalcones to curcuminoids” (Bioorg Med Chem Lett, 2015).

Data set [1] relates to MCF7/6. Description: Antiinvasive activity against human MCF7/6 cells precultured with 9 day old chick embryo heart tissue fragment at 10 micromol/l by chick heart invasion assay. Type of data set: functional, cell-based.
The test system of data set [2] is MCF7/6. Briefly: Antiinvasive activity against human MCF7/6 cells precultured with 9 day old chick embryo heart tissue fragment at 1 micromol/l by chick heart invasion assay. Type of data set: functional, cell-based.
For data set [3], the system named is MCF7/6. Briefly: Antiinvasive activity against human MCF7/6 cells precultured with 9 day old chick embryo heart tissue fragment at 0.1 micromol/l by chick heart invasion assay. Type of data set: functional, cell-based.
Data set [4] in a line: Antiinvasive activity against human MCF7/6 cells precultured with 9 day old chick embryo heart tissue fragment assessed as lowest concentration by chick heart invasion assay. Type of data set: functional.
Data set [5] is described as follows: Cytotoxicity against human MCF7/6 cells at 10 umol/l. It is filed as cell-based. The settings on record: mcf7/6, 10 µM.
Data set [6] has as its system MCF7/6. Briefly: Antiinvasive activity against human MCF7/6 cells precultured with 9 day old chick embryo heart tissue fragment at 100 micromol/l by chick heart invasion assay. It is filed as functional, cell-based.
Data set [7] deals with MCF7/6. Briefly: Antiinvasive activity against human MCF7/6 cells precultured with 9 day old chick embryo heart tissue fragment at 0.01 micromol/l by chick heart invasion assay. It is filed as functional, cell-based.
A short description of data set [8]: Cytotoxicity against human MCF7/6 cells at 100 umol/l. It is filed as cell-based. The conditions noted are these: mcf7/6, 100 µM.

In the case of `COc1cc(C(=O)/C=C/C=C/c2ccc(F)cc2)cc(OC)c1OC`, the outcome in data set [1] was Active. Also, the result in data set [2] and in data set [3] was inactive. Besides, the logMIC in data set [4] amounted to 1. Further, the Activity entry in data set [5] is “Toxic”.
Regarding `O=C(/C=C/c1ccccc1)/C=C/c1ccccc1`, the outcome in data set [6], in data set [1] and in data set [2] was Active. The result in data set [3] and in data set [7] was inactive. The logMIC in data set [4] was 0. Also, the Activity result in data set [8] is given as “Toxic”.
Turning to `COc1cc(C(=O)/C=C/c2ccc(F)cc2)cc(OC)c1OC`, the result in data set [1], in data set [2], in data set [3] and in data set [7] was Active. Moreover, the logMIC in data set [4] is given as -2. Moreover, the Activity result in data set [5] is recorded as “Non-toxic”.
`COc1cc(/C=C\c2ccc(F)cc2)cc(OC)c1OC`: the logMIC in data set [4] was 1.
Turning to `O=C(/C=C/C=C/c1ccccc1)c1ccc(Cl)cc1`, the outcome in data set [6] and in data set [2] was Active. Besides, the outcome in data set [1] and in data set [3] was inactive. Also, the logMIC in data set [4] amounted to 3.
For `O=C(/C=C/C=C/c1ccccc1)c1ccc(F)cc1`, the result in data set [6] and in data set [2] was Active. Also, the result in data set [3] and in data set [7] was inactive. The logMIC in data set [4] turned out to be 0. Further, the Activity result in data set [8] and in data set [5] was “Toxic” each time.
As to `O=C(/C=C/C=C/c1ccccc1)c1ccccc1`, in data set [6], the outcome was Active. Also, the result in data set [1], in data set [2] and in data set [3] was inactive. Also, the logMIC in data set [4] was determined as 2. The Activity result in data set [8] and in data set [5] was “Toxic” in each case.
Turning to `COc1cc(/C=C/C(=O)CC(=O)/C=C/c2ccc(O)c(OC)c2)ccc1O` [CURCUMIN], the result in data set [1] was Active. In addition, the result in data set [2] and in data set [3] was inactive. Moreover, the logMIC in data set [4] is 1.
Turning to `COc1cc(C(=O)/C=C/C=C/c2ccccc2)cc(OC)c1OC`, the outcome in data set [6] and in data set [1] was Active. For the same compound, the outcome in data set [2], in data set [3] and in data set [7] was inactive. In data set [4], the logMIC came out at 1. Besides, the Activity result in data set [8] and in data set [5] was “Toxic” each time.
Take `O=C(/C=C/c1ccc(O)cc1)CC(=O)/C=C/c1ccc(O)cc1` [BISDEMETHOXYCURCUMIN]: the result in data set [1] was Active. Moreover, the result in data set [2] and in data set [3] was inactive. Further, the logMIC in data set [4] was determined as 1. Moreover, the Activity result in data set [5] is listed as “Toxic”.
For `O=C(/C=C/C=C/c1ccccc1)/C=C/c1ccccc1`, the result in data set [6], in data set [1] and in data set [2] was Active. For the same compound, the outcome in data set [3] and in data set [7] was inactive. Besides, the logMIC in data set [4] was found to be 0. For the same compound, in data set [8], the Activity result is recorded as “Toxic”.
Consider `C(=C\c1ccccc1)/c1ccccc1`, for which the logMIC in data set [4] was -1.
The same measure, in the same setting: in the case of `COc1cc(/C=C/c2ccc(F)cc2)cc(OC)c1OC` it was 0.
With `O=C(/C=C/c1ccccc1)c1ccccc1` [CHALCONE], the outcome in data set [1] was Active. Also, in data set [2], the result was inactive. For the same compound, the logMIC in data set [4] is 1.
